Measured values reported in US12570631B2, “Substituted N-(4-(pyrimidin and pyridin-4-yl)benzylcarboxamides and its use for treating disorders responsive to inhibition of Btk” (BIOGEN MA INC., priority 2019, dated 2026).

Assays:
BTK = BTK (Homo sapiens (Human), UniProt Q06187); experiment: In vitro BTK kinase assay: Btk-PolyGAT-LS assay; type: biochemical; settings: ATP 10 μM, polyGAT 100 nM, BTK 0.25 nM, 30 minutes
[1] = system: CD69 expression on CD19+ B cells in human whole blood; experiment: In vitro whole blood CD69 assay; type: cell-based; settings: B-cell; Whole Blood CD69 inhibition; human heparinized blood, anti-human IgD stimulation, CD19+ B cells expressing CD69; read-out: IC50

BTK, sequence (Q06187 whole entry): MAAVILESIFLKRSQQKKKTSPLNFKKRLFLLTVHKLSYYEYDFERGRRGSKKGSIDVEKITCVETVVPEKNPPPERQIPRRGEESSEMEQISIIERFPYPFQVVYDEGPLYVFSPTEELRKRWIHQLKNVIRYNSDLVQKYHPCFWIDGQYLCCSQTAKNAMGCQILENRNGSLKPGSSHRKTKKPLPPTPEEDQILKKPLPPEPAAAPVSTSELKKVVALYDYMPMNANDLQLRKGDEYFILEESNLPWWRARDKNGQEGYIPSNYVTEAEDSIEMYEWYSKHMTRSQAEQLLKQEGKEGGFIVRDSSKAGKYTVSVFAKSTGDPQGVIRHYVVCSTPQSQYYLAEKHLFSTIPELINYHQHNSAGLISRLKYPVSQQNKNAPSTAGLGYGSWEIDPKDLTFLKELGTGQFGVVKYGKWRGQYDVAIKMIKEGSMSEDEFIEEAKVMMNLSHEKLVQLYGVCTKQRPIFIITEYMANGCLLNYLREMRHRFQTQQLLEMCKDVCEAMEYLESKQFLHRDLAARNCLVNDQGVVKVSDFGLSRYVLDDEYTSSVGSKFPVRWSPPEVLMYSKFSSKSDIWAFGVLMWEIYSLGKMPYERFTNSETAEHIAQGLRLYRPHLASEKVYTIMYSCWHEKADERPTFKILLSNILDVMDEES

Structure (SMILES)	IC50 (BTK) [nM]	IC50 [1] [nM]
C=CC(=O)N1CCCC(Oc2cncnc2-c2ccc(CNC(=O)c3cn(C(C)(C)C)nn3)c(C)c2)C1 (stereo not shown) [Example 39, N-(4-(5-((1-acryloylpiperidin-3-yl)oxy)pyrimidin-4-yl)-2-methylbenzyl)-1-(tert-butyl)-1H-1,2,3-triazole-4-carboxamide]	> 10	> 1000
Cc1cc(-c2ccncc2OC2CN(C(=O)/C=C/CN(C)C)C2)ccc1CNC(=O)c1cn(C(C)(C)C)nn1 [Example 40, (E)-1-(tert-butyl)-N-(4-(3-((1-(4-(dimethylamino)but-2-enoyl)azetidin-3-yl)oxy)pyridin-4-yl)-2-methylbenzyl)-1H-1,2,3-triazole-4-carboxamide]	> 10	> 1000
Cc1cc(-c2ccncc2OC2CCN(C(=O)/C=C/CN(C)C)C2)ccc1CNC(=O)c1cn(C(C)(C)C)nn1 (stereo not shown) [Example 41, (E)-1-(tert-butyl)-N-(4-(3-((1-(4-(dimethylamino)but-2-enoyl)pyrrolidin-3-yl)oxy)pyridin-4-yl)-2-methylbenzyl)-1H-1,2,3-triazole-4-carboxamide]	> 10	> 1000
Cc1cc(-c2ccncc2OC2CCN(C(=O)/C=C/CN(C)C)CC2)ccc1CNC(=O)c1cn(C(C)(C)C)nn1 [Example 42, (E)-1-(tert-butyl)-N-(4-(3-((1-(4-(dimethylamino)but-2-enoyl)piperidin-4-yl)oxy)pyridin-4-yl)-2-methylbenzyl)-1H-1,2,3-triazole-4-carboxamide]	< 1	100 to 1000
C#CC(=O)N1CCC(Oc2cnccc2-c2ccc(CNC(=O)c3cn(C(C)(C)C)nn3)c(C)c2)C1 (stereo not shown) [Example 43, 1-(tert-butyl)-N-(2-methyl-4-(3-((1-propioloylpyrrolidin-3-yl)oxy)pyridin-4-yl)benzyl)-1H-1,2,3-triazole-4-carboxamide]	1 to 10	> 1000
C#CC(=O)N1CCC(Oc2cnccc2-c2ccc(CNC(=O)c3cn(C(C)(C)C)nn3)c(C)c2)CC1 [Example 44, 1-(tert-butyl)-N-(2-methyl-4-(3-((1-propioloylpiperidin-4-yl)oxy)pyridin-4-yl)benzyl)-1H-1,2,3-triazole-4-carboxamide]	< 1	> 1000
C=CC(=O)N1CCCC1COc1cnccc1-c1ccc(CNC(=O)c2cn(C(C)(C)C)nn2)c(C)c1F (stereo not shown) [Example 49, N-(4-(3-((1-acryloylpyrrolidin-2-yl)methoxy)pyridin-4-yl)-3-fluoro-2-methylbenzyl)-1-(tert-butyl)-1H-1,2,3-triazole-4-carboxamide]	1 to 10	> 1000
C=CS(=O)(=O)N1CCCC1COc1cnccc1-c1ccc(CNC(=O)c2cn(C(C)(C)C)nn2)c(C)c1F (stereo not shown) [Example 50, 1-(tert-butyl)-N-(3-fluoro-2-methyl-4-(3-((1-(vinylsulfonyl)pyrrolidin-2-yl)methoxy)pyridin-4-yl)benzyl)-1H-1,2,3-triazole-4-carboxamide]	< 1	> 1000
